Experimental data from patent US10752631B2, “Heterocyclic compounds as FGFR inhibitors” (GUANGZHOU INNOCARE PHARMA TECH CO., LTD., priority 2016, dated 2020).

Assays:
[1] = molecular target: human recombinant FGFR2 catalytic structural domain protein (amino acids 400-821) (Homo sapiens (Human), UniProt P21802); test: FGFR2 activity inhibition test (HTRF kinase assay); assay type: biochemical; conditions: 50 μM ATP
[2] = molecular target: human recombinant FGFR3 catalytic structural domain protein (amino acids 399-806) (Homo sapiens (Human), UniProt P22607); test: FGFR3 activity inhibition test (HTRF kinase assay); assay type: biochemical; conditions: 90 μM ATP
Sequence of human recombinant FGFR3 catalytic structural domain protein (amino acids 399-806) (P22607 399-806): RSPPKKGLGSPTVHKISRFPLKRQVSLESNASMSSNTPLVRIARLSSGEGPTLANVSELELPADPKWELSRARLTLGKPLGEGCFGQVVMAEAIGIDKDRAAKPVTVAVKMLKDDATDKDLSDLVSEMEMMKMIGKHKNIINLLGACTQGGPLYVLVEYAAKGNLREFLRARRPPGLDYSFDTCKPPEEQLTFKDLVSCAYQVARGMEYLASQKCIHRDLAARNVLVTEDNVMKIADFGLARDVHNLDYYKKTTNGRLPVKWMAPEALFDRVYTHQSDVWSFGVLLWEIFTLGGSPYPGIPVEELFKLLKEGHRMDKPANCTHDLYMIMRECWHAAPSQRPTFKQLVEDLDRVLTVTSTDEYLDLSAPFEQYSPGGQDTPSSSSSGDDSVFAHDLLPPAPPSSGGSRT

Sequence of human recombinant FGFR2 catalytic structural domain protein (amino acids 400-821) (P21802 400-821): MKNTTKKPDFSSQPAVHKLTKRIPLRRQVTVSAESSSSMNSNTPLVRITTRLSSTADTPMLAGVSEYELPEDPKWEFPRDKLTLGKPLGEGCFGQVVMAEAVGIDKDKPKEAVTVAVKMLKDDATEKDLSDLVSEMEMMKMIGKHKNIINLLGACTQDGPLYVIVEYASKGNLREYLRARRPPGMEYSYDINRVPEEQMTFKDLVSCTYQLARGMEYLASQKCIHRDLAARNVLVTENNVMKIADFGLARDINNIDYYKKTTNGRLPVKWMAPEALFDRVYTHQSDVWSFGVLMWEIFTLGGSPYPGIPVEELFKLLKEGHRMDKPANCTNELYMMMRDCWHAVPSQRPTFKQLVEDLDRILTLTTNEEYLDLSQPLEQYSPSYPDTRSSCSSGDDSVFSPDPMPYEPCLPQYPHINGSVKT

Row | SMILES | IC50 [1] [µM] | IC50 [2] [µM]
1 | CC#CC(=O)N1CC[C@@H](c2nc(C#Cc3cc(OC)cc(OC)c3)c3c(N)nccn23)C1 [Compound 5, (R)-1-((3,5-Dimethoxyphenyl)ethynyl)-3-(1-butan-2-ynoylpyrrolidin-3-yl)imidazo[1,5-a]pyrazin-8-amine] | < 0.05 | < 0.05
2 | C/C=C/C(=O)N1CC(c2nc(C#Cc3cc(OC)cc(OC)c3)c3c(N)nccn23)C1 [Compound 11, (E)-1-((3,5-Dimethoxyphenyl)ethynyl)-3-(1-but-2-enoylazacyclobutan-3-yl)imidazo[1,5-a]pyrazin-8-amine] | 0.05 to 0.5 | 0.05 to 0.5
3 | CC#CC(=O)N1CCC(c2nc(C#Cc3cc(OC)cc(OC)c3)c3c(N)nccn23)C1 (centres unmarked) [Compound 9, 1-((3,5-Dimethoxyphenyl)ethynyl)-3-(1-butan-2-ynoylpyrolidin-3-yl)imidazo[1,5-a]pyrazin-8-amine] | < 0.05 | 0.05 to 0.5

Results, then the compound that gave them:

Row | IC50 [1] [µM] | IC50 [2] [µM] | SMILES
4 | < 0.05 | < 0.05 | C/C=C/C(=O)N1CC[C@@H](c2nc(C#Cc3cc(OC)cc(OC)c3)c3c(N)nccn23)C1 [Compound 7, (E)-1-((3,5-Dimethoxyphenyl)ethynyl)-3-(1-butan-2-enoylpyrrolidin-3-yl)imidazo[1,5-a]pyrazin-8-amine]
5 | 0.05 to 0.5 | 0.05 to 0.5 | CC#CC(=O)N1CC(c2nc(C#Cc3cc(OC)cc(OC)c3)c3c(N)nccn23)C1 [Compound 12, 1-((3,5-Dimethoxyphenyl)ethynyl)-3-(1-but-2-ynoylazacyclobutan-3-yl)imidazo[1,5-a]pyrazin-8-amine]
6 | < 0.05 | < 0.05 | COc1cc(C#Cc2nc(C3CCN(C(=O)/C=C/CN(C)C)C3)n3ccnc(N)c23)cc(OC)c1 (centres unmarked) [Compound 10]
7 | < 0.05 | 0.05 to 0.5 | C#CC(=O)N1CC[C@@H](c2nc(C#Cc3cc(OC)cc(OC)c3)c3c(N)nccn23)C1 (stereo in doubt) [Compound 8, 1-((3,5-Dimethoxyphenyl)ethynyl)-3-(1-propynoylpyrrolidin-3-yl)imidazo[1,5-a]pyrazin-8-amine]
